# Laboratory results published in ChEMBL document CHEMBL1126058, “Development of potent and selective CCK-A receptor agonists from Boc-CCK-4: tetrapeptides containing Lys(N epsilon)-amide residues” (J Med Chem, 1992).
# Where a SMILES comes first, the peptide text is derived from it. [ ]: non-standard residue; d: D form. The star is where a group is joined. Hydrocinnamoyl(4-OSO3H) = O=C(CCc1ccc(OS(=O)(=O)O)cc1)*; Propanoyl(3-(4-MeO-Ph)) = COc1ccc(CCC(=O)*)cc1; Propanoyl(3-(4-Cl-Ph)) = O=C(CCc1ccc(Cl)cc1)*; Hydrocinnamoyl(4-Me) = Cc1ccc(CCC(=O)*)cc1; Dihydrocaffeoyl = O=C(CCc1ccc(O)c(O)c1)*; X23 = O=C(/C=C/c1ccc(OS(=O)(=O)O)cc1)*; X35 = O=C(/C=C\c1ccc(OS(=O)(=O)O)cc1)*; X6 = O=C(/C=C\c1ccc([N+](=O)[O-])cc1)*; Propanoyl(3-cHex) = O=C(CCC1CCCCC1)*; X20 = CC(=O)Oc1ccc2cc(C(=O)*)ccc2c1; Hydrocinnamoyl = O=C(CCc1ccccc1)*; X17 = COc1ccc(/C=C\C(=O)*)c(OC)c1; X26 = O=C(/C=C\c1ccc(Cl)c(Cl)c1)*; NMeF = CN[C@@H](Cc1ccccc1)C(=O)O; X30 = O=C(CCc1ccc(C(F)(F)F)cc1)*; X10 = O=C(/C=C\c1ccc(Cl)cc1Cl)*; X14 = O=C(c1cc2cc(O)ccc2[nH]1)*; X7 = CN(C)c1ccc(/C=C\C(=O)*)cc1; X25 = COc1ccc(/C=C\C(=O)*)cc1; X33 = O=C(/C=C/c1ccc(Cl)cc1)*; X34 = O=C(/C=C\c1ccc(Cl)cc1)*; X32 = Cc1ccc(/C=C\C(=O)*)cc1; X4 = O=C(/C=C\c1ccc(F)cc1)*; X27 = O=C(Cc1ccc(O)cc1)*; X5 = O=C(CCc1cccc(O)c1)*; X9 = O=C(/C=C/c1cccs1)*; Boc = CC(C)(C)OC(=O)*
# What was measured:
# [1] = target: T1, Cholecystokinin receptor type A (Cavia porcellus, UniProt Q63931); experiment: Inhibition of specific binding of [125I]BH-CCK-8 in guinea pig pancreas.
# T1 sequence (Q63931 whole entry): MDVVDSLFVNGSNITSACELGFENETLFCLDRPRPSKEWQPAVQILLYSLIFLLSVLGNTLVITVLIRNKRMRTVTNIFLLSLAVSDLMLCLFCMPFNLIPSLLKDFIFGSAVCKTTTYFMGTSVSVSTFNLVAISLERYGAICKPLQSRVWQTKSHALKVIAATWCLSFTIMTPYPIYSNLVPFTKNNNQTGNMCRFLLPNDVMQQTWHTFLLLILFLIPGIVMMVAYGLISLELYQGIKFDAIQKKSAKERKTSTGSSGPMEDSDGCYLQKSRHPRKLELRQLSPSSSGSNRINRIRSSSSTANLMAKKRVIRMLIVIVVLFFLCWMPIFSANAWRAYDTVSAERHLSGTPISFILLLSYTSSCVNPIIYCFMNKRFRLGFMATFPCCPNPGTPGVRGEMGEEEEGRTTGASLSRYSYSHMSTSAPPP
# Cavia porcellus [2] = species: Cavia porcellus; experiment: Hydrolysis of phosphoinositide (PI) relative to maximal response elicited by CCK-8 in guinea pig pancreas.; format: functional
# Cavia porcellus [3] = species: Cavia porcellus; experiment: Stimulation of amylase release in guinea pig pancreas; format: functional
Structure (SMILES),IC50 [1] [nM],Max (Cavia porcellus [2]) [%],EC50 (Cavia porcellus [3]) [nM]
CC(C)(C)OC(=O)N[C@@H](Cc1c[nH]c2ccccc12)C(=O)N[C@@H](CCCCNC(=O)CCC1CCCCC1)C(=O)N[C@@H](CC(=O)O)C(=O)N[C@@H](Cc1ccccc1)C(N)=O (Boc-WK(Propanoyl(3-cHex))DF-NH2),310,40,30000
COc1ccc(/C=C\C(=O)NCCCC[C@H](NC(=O)[C@H](Cc2c[nH]c3ccccc23)NC(=O)OC(C)(C)C)C(=O)N[C@@H](CC(=O)O)C(=O)N[C@@H](Cc2ccccc2)C(N)=O)cc1 (Boc-WK(X25)DF-NH2),30,72,20
CN(C(=O)[C@H](CC(=O)O)NC(=O)[C@H](CCCCNC(=O)/C=C/c1ccc(Cl)cc1)NC(=O)[C@H](Cc1c[nH]c2ccccc12)NC(=O)OC(C)(C)C)[C@@H](Cc1ccccc1)C(N)=O (Boc-WK(X33)D[NMeF]-NH2),15,68,8.6
CC(C)(C)OC(=O)N[C@@H](Cc1c[nH]c2ccccc12)C(=O)N[C@@H](CCCCNC(=O)CCc1ccccc1)C(=O)N[C@@H](CC(=O)O)C(=O)N[C@@H](Cc1ccccc1)C(N)=O (Boc-WK(Hydrocinnamoyl)DF-NH2),310,49,850
CC(C)(C)OC(=O)N[C@@H](Cc1c[nH]c2ccccc12)C(=O)N[C@@H](CCCCNC(=O)CCc1ccc(Cl)cc1)C(=O)N[C@@H](CC(=O)O)C(=O)N[C@@H](Cc1ccccc1)C(N)=O (Boc-WK(Propanoyl(3-(4-Cl-Ph)))DF-NH2),410,51,170
Cc1ccc(CCC(=O)NCCCC[C@H](NC(=O)[C@H](Cc2c[nH]c3ccccc23)NC(=O)OC(C)(C)C)C(=O)N[C@@H](CC(=O)O)C(=O)N[C@@H](Cc2ccccc2)C(N)=O)cc1 (Boc-WK(Hydrocinnamoyl(4-Me))DF-NH2),290,62,240
CN(C(=O)[C@H](CC(=O)O)NC(=O)[C@H](CCCCNC(=O)/C=C/c1ccc(OS(=O)(=O)O)cc1)NC(=O)[C@H](Cc1c[nH]c2ccccc12)NC(=O)OC(C)(C)C)[C@@H](Cc1ccccc1)C(N)=O (Boc-WK(X23)D[NMeF]-NH2),22,74,2.9
CC(C)(C)OC(=O)N[C@@H](Cc1c[nH]c2ccccc12)C(=O)N[C@@H](CCCCNC(=O)Cc1ccc(O)cc1)C(=O)N[C@@H](CC(=O)O)C(=O)N[C@@H](Cc1ccccc1)C(N)=O (Boc-WK(X27)DF-NH2),1100,88,30000
CC(C)(C)OC(=O)N[C@@H](Cc1c[nH]c2ccccc12)C(=O)N[C@@H](CCCCNC(=O)CCc1cccc(O)c1)C(=O)N[C@@H](CC(=O)O)C(=O)N[C@@H](Cc1ccccc1)C(N)=O (Boc-WK(X5)DF-NH2),400,46,160
CN(C)c1ccc(/C=C\C(=O)NCCCC[C@H](NC(=O)[C@H](Cc2c[nH]c3ccccc23)NC(=O)OC(C)(C)C)C(=O)N[C@@H](CC(=O)O)C(=O)N[C@@H](Cc2ccccc2)C(N)=O)cc1 (Boc-WK(X7)DF-NH2),120,49,17
CSCC[C@H](NC(=O)[C@H](Cc1c[nH]c2ccccc12)NC(=O)OC(C)(C)C)C(=O)N[C@@H](CC(=O)O)C(=O)N[C@@H](Cc1ccccc1)C(N)=O,–,40,2600
CC(C)(C)OC(=O)N[C@@H](Cc1c[nH]c2ccccc12)C(=O)N[C@@H](CCCCNC(=O)CCc1ccc(O)c(O)c1)C(=O)N[C@@H](CC(=O)O)C(=O)N[C@@H](Cc1ccccc1)C(N)=O (Boc-WK(Dihydrocaffeoyl)DF-NH2),160,44,300
COc1ccc(/C=C\C(=O)NCCCC[C@H](NC(=O)[C@H](Cc2c[nH]c3ccccc23)NC(=O)OC(C)(C)C)C(=O)N[C@@H](CC(=O)O)C(=O)N[C@@H](Cc2ccccc2)C(N)=O)c(OC)c1 (Boc-WK(X17)DF-NH2),38,82,14
CC(C)(C)OC(=O)N[C@@H](Cc1c[nH]c2ccccc12)C(=O)N[C@@H](CCCCNC(=O)CCc1ccc(C(F)(F)F)cc1)C(=O)N[C@@H](CC(=O)O)C(=O)N[C@@H](Cc1ccccc1)C(N)=O (Boc-WK(X30)DF-NH2),390,77,30000
CC(C)(C)OC(=O)N[C@@H](Cc1c[nH]c2ccccc12)C(=O)N[C@@H](CCCCNC(=O)/C=C\c1ccc(Cl)cc1Cl)C(=O)N[C@@H](CC(=O)O)C(=O)N[C@@H](Cc1ccccc1)C(N)=O (Boc-WK(X10)DF-NH2),130,86,90
CC(C)(C)OC(=O)N[C@@H](Cc1c[nH]c2ccccc12)C(=O)N[C@@H](CCCCNC(=O)c1cc2cc(O)ccc2[nH]1)C(=O)N[C@@H](CC(=O)O)C(=O)N[C@@H](Cc1ccccc1)C(N)=O (Boc-WK(X14)DF-NH2),14,23,68
CC(C)(C)OC(=O)N[C@@H](Cc1c[nH]c2ccccc12)C(=O)N[C@@H](CCCCNC(=O)CCc1ccc(OS(=O)(=O)O)cc1)C(=O)N[C@@H](CC(=O)O)C(=O)N[C@@H](Cc1ccccc1)C(N)=O (Boc-WK(Hydrocinnamoyl(4-OSO3H))DF-NH2),76,68,98
CC(C)(C)OC(=O)N[C@@H](Cc1c[nH]c2ccccc12)C(=O)N[C@@H](CCCCNC(=O)/C=C/c1cccs1)C(=O)N[C@@H](CC(=O)O)C(=O)N[C@@H](Cc1ccccc1)C(N)=O (Boc-WK(X9)DF-NH2),50,66,20
CC(C)(C)OC(=O)N[C@@H](Cc1c[nH]c2ccccc12)C(=O)N[C@@H](CCCCNC(=O)/C=C\c1ccc([N+](=O)[O-])cc1)C(=O)N[C@@H](CC(=O)O)C(=O)N[C@@H](Cc1ccccc1)C(N)=O (Boc-WK(X6)DF-NH2),57,64,27
CC(C)(C)OC(=O)N[C@@H](Cc1c[nH]c2ccccc12)C(=O)N[C@@H](CCCCNC(=O)/C=C\c1ccc(F)cc1)C(=O)N[C@@H](CC(=O)O)C(=O)N[C@@H](Cc1ccccc1)C(N)=O (Boc-WK(X4)DF-NH2),65,74,16
COc1ccc(CCC(=O)NCCCC[C@H](NC(=O)[C@H](Cc2c[nH]c3ccccc23)NC(=O)OC(C)(C)C)C(=O)N[C@@H](CC(=O)O)C(=O)N[C@@H](Cc2ccccc2)C(N)=O)cc1 (Boc-WK(Propanoyl(3-(4-MeO-Ph)))DF-NH2),140,70,74
CC(C)(C)OC(=O)N[C@@H](Cc1c[nH]c2ccccc12)C(=O)N[C@@H](CCCCNC(=O)/C=C\c1ccc(Cl)c(Cl)c1)C(=O)N[C@@H](CC(=O)O)C(=O)N[C@@H](Cc1ccccc1)C(N)=O (Boc-WK(X26)DF-NH2),49,62,46
CC(=O)Oc1ccc2cc(C(=O)NCCCC[C@H](NC(=O)[C@H](Cc3c[nH]c4ccccc34)NC(=O)OC(C)(C)C)C(=O)N[C@@H](CC(=O)O)C(=O)N(C)[C@@H](Cc3ccccc3)C(N)=O)ccc2c1 (Boc-WK(X20)D[NMeF]-NH2),3.4,58,29
Cc1ccc(/C=C\C(=O)NCCCC[C@H](NC(=O)[C@H](Cc2c[nH]c3ccccc23)NC(=O)OC(C)(C)C)C(=O)N[C@@H](CC(=O)O)C(=O)N[C@@H](Cc2ccccc2)C(N)=O)cc1 (Boc-WK(X32)DF-NH2),71,71,52
CC(=O)Oc1ccc2cc(C(=O)NCCCC[C@H](NC(=O)[C@H](Cc3c[nH]c4ccccc34)NC(=O)OC(C)(C)C)C(=O)N[C@@H](CC(=O)O)C(=O)N[C@@H](Cc3ccccc3)C(N)=O)ccc2c1 (Boc-WK(X20)DF-NH2),8,49,11
CC(C)(C)OC(=O)N[C@@H](Cc1c[nH]c2ccccc12)C(=O)N[C@@H](CCCCNC(=O)/C=C\c1ccc(Cl)cc1)C(=O)N[C@@H](CC(=O)O)C(=O)N[C@@H](Cc1ccccc1)C(N)=O (Boc-WK(X34)DF-NH2),–,66,79
CC(C)(C)OC(=O)N[C@@H](Cc1c[nH]c2ccccc12)C(=O)N[C@@H](CCCCNC(=O)/C=C\c1ccc(OS(=O)(=O)O)cc1)C(=O)N[C@@H](CC(=O)O)C(=O)N[C@@H](Cc1ccccc1)C(N)=O (Boc-WK(X35)DF-NH2),–,72,7.2
